According to patent publication US11376203B2, “Hair treatment composition” (Conopco, Inc., priority 2017, dated 2022):

Tests used:
[1] = Hair switch volume reduction benefit after subsequent washing; settings: switches from Example 1 subsequently washed, images captured; compared to control
Description: (§1) Dark brown European wavy hair switches of length 25 cm and weight 2 gms, were treated as follows:
(§2) At the end of the soaking period, the switches were left to dry at 20° C. and 50% RH. When dried, the switches were straightened with 5 passes of FHI irons (FHI Brands, 29003 Avenue Sherman Valencia, Calif. 91355 USA). The switches were then placed in a humidity chamber ˜30 C/80% RH for 1 hour and images were captured and analyzed.
The switches from the above example were subsequently washed and the images were captured. […] The corresponding benefits for glycine was only −10%.

[2] = Hair switch shape and frizz control (volume) after straightening and exposure to high humidity; settings: After 1 hour at high humidity (30 C./80% RH); switches soaked 30 minutes in 1% aqueous solution, dried, straightened with 5 passes of irons; volume vs water control
Description: as §1
Control: After initial washing, soaked for 30 minutes in water
Comparative Example A: After initial washing, soaked for 30 minutes in aqueous solution of 1% glycine
Example 1: soaked for 30 minutes in aqueous solution of 1% N-formyl glycine
as §2

Structure (SMILES) | benefit over control (volume reduction) after washing [1] | % shape and frizz control benefit against control [2]
O=CNCC(=O)O [Example 1, N-formyl glycine] | 32% | 30%
NCC(=O)O [Comparative Example A, glycine] | −10% | −6%
